PubChem BioAssay (NCI)
Values joined by “and” are separate entries in the source; they are usually repeats but may differ in a detail not shown here. Equal entries are not always repeated.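 Results reflect a 48-hour exposure of cells in 96-well plates to compound at five concentrations. GI50 marks 50% less growth. The concentration for full growth arrest is given as TGI.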 Where a SMILES comes first, the peptide text is derived from it. [ ]: non-standard residue; d: D form. The star is where a group is joined. ξ: configuration not given here. ξD = NC(CC(=O)O)C(=O)O; Ac3c = NC1(C(=O)O)CC1; Boc = CC(C)(C)OC(=O)*; OBn = c1ccc(CO*)cc1

Tests used:
Assay in all cases: growth of human tumour cells (NCI), 48 h
TK-10 renal = system: TK-10 renal
SK-MEL-2 melanoma = system: SK-MEL-2 melanoma
MALME-3M melanoma = system: MALME-3M melanoma
HT29 colon = system: HT29 colon
MOLT-4 leukemia = system: MOLT-4 leukemia
MDA-MB-231 breast = system: MDA-MB-231 breast
SNB-75 CNS = system: SNB-75 CNS
CCRF-CEM leukemia = system: CCRF-CEM leukemia
NCI-H522 lung = system: NCI-H522 lung
SR leukemia = system: SR leukemia

Row | Compound | TGI (TK-10 renal) | TGI (SK-MEL-2 melanoma) | TGI (MALME-3M melanoma) | TGI (HT29 colon) | TGI (MOLT-4 leukemia) | TGI (MDA-MB-231 breast) | TGI (SNB-75 CNS) | TGI (CCRF-CEM leukemia) | TGI (NCI-H522 lung) | GI50 (TK-10 renal) | TGI (SR leukemia) | GI50 (CCRF-CEM leukemia) | GI50 (SK-MEL-2 melanoma) | GI50 (MALME-3M melanoma) | GI50 (HT29 colon) | GI50 (MOLT-4 leukemia) | GI50 (MDA-MB-231 breast) | GI50 (SR leukemia) | GI50 (NCI-H522 lung)
1 | COc1c(OC)c(O)c2c(=O)c(OC)c(-c3ccc4c(c3)OCO4)oc2c1O | > 100 µM | > 100 µM | > 100 µM | > 100 µM | > 100 µM | > 100 µM | > 100 µM | > 100 µM | > 100 µM | – | – | – | – | – | – | – | – | – | –
2 | CN(C)CCCNc1c2ccccc2nc2cccc([N+](=O)[O-])c12 | 0.00909 µM and 0.0869 µM | 0.00221 µM | 0.00221 µM and 0.0136 µM | – | 0.052 µM | 0.00712 µM | – | 0.196 µM | < 0.001 µM | 0.0203 µM | 0.0576 µM | 0.029 µM | – | – | – | – | – | – | –
3 | C1#Cc2ccccc2OCCOc2ccccc2C#Cc2ccccc2OCCOc2ccccc21 | > 100 µM | > 100 µM | 73 µM | > 100 µM | 31.3 µM | 54.9 µM | – | 36.3 µM | 49.8 µM | – | – | – | – | – | – | – | – | – | –
4 | COC(=O)C1(NC(=O)C(CC(=O)OCc2ccccc2)NC(=O)OC(C)(C)C)CC1 (stereo unspecified) (Boc-[ξD](OBn)-[Ac3c]-OMe) | > 100 µM | > 100 µM | > 100 µM | > 100 µM | > 100 µM | > 100 µM | > 100 µM | > 100 µM | > 100 µM | – | – | – | – | – | – | – | – | – | –
5 | S=c1nc2[nH]c3ccc(Br)cc3c2n[nH]1 | > 100 µM | 90 µM | > 100 µM | > 100 µM | > 100 µM | > 100 µM | 94.9 µM | – | > 100 µM | – | 69.3 µM | – | – | – | – | – | – | – | –
6 | O=C1CSC2=NCC3(NN12)c1ccccc1-c1ccccc13 | > 10 µM | – | > 10 µM | > 10 µM | > 10 µM | > 10 µM | > 10 µM | > 10 µM | > 10 µM | – | > 10 µM | – | – | – | – | – | – | – | –
7 | CC(=O)OCc1cc(=O)n(C)c2c3c4c(cc12)c(C)cc(=O)n4CO3 | – | 3.65 µM | 2.72 µM | 8.81 µM | 4.25 µM | – | 4.69 µM | 12.7 µM | 2.16 µM | – | – | – | – | – | – | – | – | – | –
8 | O=c1[nH]c(=O)n(COCc2ccccc2)c2ccc(Br)cc12 | > 100 µM | > 100 µM | – | > 100 µM | > 100 µM | > 100 µM | > 100 µM | > 100 µM | – | – | > 100 µM | – | – | – | – | – | – | – | –
9 | CSc1nc(NC2OCC(O)C(O)C2O)c(N)c(=O)n1C (stereo unspecified) | – | > 100 µM | > 100 µM | > 100 µM | > 100 µM | – | > 100 µM | > 100 µM | > 100 µM | – | – | – | – | – | – | – | – | – | –
10 | Nc1ccccc1NC(=O)CCCCCCC(=O)Nc1ccc2c(c1)/C(=C/c1ccc[nH]1)C(=O)N2 | – | > 100 µM | > 100 µM | > 100 µM | > 100 µM | > 100 µM | – | > 100 µM | > 100 µM | – | > 100 µM | 0.419 µM | 5.73 µM | 6.2 µM | > 100 µM | 2.9 µM | > 100 µM | 4.64 µM | 2.78 µM
11 | CC(NC(=O)OCc1ccccc1)NC(=O)C(CC(=O)OC(C)(C)C)NC(=O)OC(C)(C)C (stereo unspecified) | > 100 µM | > 100 µM | > 100 µM | > 100 µM | > 100 µM | > 100 µM | > 100 µM | > 100 µM | > 100 µM | – | – | – | – | – | – | – | – | – | –
12 | Cc1ccc(NC(=S)Nc2c(C)n(C)n(-c3ccccc3)c2=O)cc1 | > 100 µM | – | > 100 µM | > 100 µM | > 100 µM | > 100 µM | > 100 µM | > 100 µM | > 100 µM | – | > 100 µM | – | – | – | – | – | – | – | –
13 | COc1cccc2c1C1(O)C2CCCC12OCCCO2 (stereo unspecified) | > 100 µM | > 100 µM | > 100 µM | > 100 µM | > 100 µM | – | > 100 µM | > 100 µM | > 100 µM | – | – | – | – | – | – | – | – | – | –
14 | [N-]=[N+]=NC1CC(n2cc(COCC(F)(F)F)c(=O)[nH]c2=O)OC1CO (stereo unspecified) | > 100 µM | > 100 µM | > 100 µM | > 100 µM | > 100 µM | – | > 100 µM | > 100 µM | > 100 µM | – | – | – | – | – | – | – | – | – | –
15 | OCC(O)C1OC2CC1Nc1ccccc1N2 (stereo unspecified) | > 100 µM | > 100 µM | > 100 µM | > 100 µM | > 100 µM | > 100 µM | > 100 µM | > 100 µM | > 100 µM | – | – | – | – | – | – | – | – | – | –
16 | CCOC(=O)c1c2c(n(-c3ccc(OC)cc3)c1C)C(=O)C(=O)c1ccccc1-2 | 3.33 µM | > 21.8 µM | 0.605 µM | > 22.7 µM | > 100 µM | 4.37 µM | 4.09 µM | > 100 µM | > 20.4 µM | – | – | – | – | – | – | 1.66 µM | – | – | –
17 | COC(=O)c1ccccc1C#CCCCOS(C)(=O)=O | > 10 µM | > 10 µM | > 10 µM | > 10 µM | > 10 µM | > 10 µM | – | > 10 µM | – | – | > 10 µM | – | – | – | – | – | – | – | –
18 | CC(C)(C)OC(=O)NC(Cc1ccc(O)cn1)C(N)=O (stereo unspecified) | > 100 µM | – | > 100 µM | > 100 µM | > 100 µM | > 100 µM | > 100 µM | – | > 100 µM | – | > 100 µM | – | – | – | – | – | – | – | –
19 | Cc1cc(=O)n2nc(CSc3nnc(N)s3)sc2n1 | > 100 µM | > 100 µM | > 100 µM | > 100 µM | > 100 µM | > 100 µM | > 100 µM | > 100 µM | > 100 µM | – | – | – | – | – | – | – | – | – | –
20 | O=C(NC1(C(=O)NNc2nnc(-c3ccccc3)c(-c3ccccc3)n2)C(c2ccccc2)C(c2ccccc2)=NN1c1ccccc1)c1ccccc1 (stereo unspecified) | > 100 µM | > 100 µM | > 100 µM | > 100 µM | > 100 µM | > 100 µM | > 100 µM | – | > 100 µM | – | > 100 µM | – | – | – | – | – | – | – | –
21 | C=C(CC(=O)Nc1ccc(C(=O)OC)o1)C(=O)OC | 46.1 µM | 46.7 µM | 39.3 µM | 70.2 µM | 47.8 µM | 58.2 µM | > 100 µM | – | 38 µM | – | – | – | – | – | – | – | – | – | –
22 | COc1ccc(/C=C2\CC3C4CC=C5C[C@@H](O)CC[C@]5(C)C4CC[C@]3(C)\C2=N\O)cc1OC (stereo partly specified) | > 100 µM | 42.3 µM | > 100 µM | > 100 µM | > 100 µM | > 100 µM | > 100 µM | > 100 µM | > 100 µM | – | – | – | – | – | – | – | – | – | –
